Measurements: ChEMBL document CHEMBL5154725, “SAR evolution towards potent C-terminal carboxamide peptide inhibitors of Zika virus NS2B-NS3 protease” (Bioorg Med Chem, 2022)
Non-standard residues stand in square brackets, D forms with d. Residues, ends and D or L forms follow the SMILES beside them. *: point of attachment. Phe(4-CH2NH2) = NCc1ccc(C[C@H](N)C(=O)O)cc1; AEF = NCCOc1ccc(C[C@H](N)C(=O)O)cc1; NHPhenethyl = c1ccc(CCN*)cc1; PhAc = O=C(Cc1ccccc1)*

experiment: Inhibition of 6-His tagged-G4SG4 fused ZIKV NS2B (49 to 95 residues) R95A mutant-NS3 (1 to 170 residue) R29G mutant expressed in Escherichia coli BL21 (DE3) using Bz-Nle-K-RR-AMC substrate preincubated for 10 mins followed by substrate addition and measured after 30 mins by fluorescence assay; parameters: species or system Zika virus

First: CN(Cc1ccccc1)C(=O)[C@H](CCCNC(=N)N)NC(=O)[C@H](CCCCN)NC(=O)[C@H](CCCCN)NC(=O)Cc1ccccc1
Second: N=C(N)NCCC[C@H](NC(=O)[C@H](CCCCN)NC(=O)[C@H](CCCCN)NC(=O)Cc1ccccc1)C(=O)NCCc1ccccc1 (PhAc-Lys-Lys-Arg-NHPhenethyl)
The IC50 of the first is 6-fold higher: 70 µM for the first, 11.6 µM for the second. The second is the more potent here.

Going from N=C(N)NCCC[C@H](NC(=O)[C@H](CCCCN)NC(=O)[C@H](CCCCN)NC(=O)C1(c2ccccc2)CC1)C(N)=O to N=C(N)NCCC[C@H](NC(=O)[C@H](CCCCN)NC(=O)[C@H](CCCCN)NC(=O)C(F)c1ccccc1)C(N)=O (mixture of isomers), the IC50 falls from 10.1 µM to 4.94 µM (2-fold). The second is the more potent here.

Compared with N=C(N)NCCC[C@H](NC(=O)c1cccs1)C(=O)N[C@@H](CCCCN)C(=O)N[C@H](C(N)=O)c1ccc(OCCc2ccccc2)cc1, N=C(N)NCCC[C@H](NC(=O)c1cccs1)C(=O)N[C@@H](CCCCN)C(=O)N[C@H](C(N)=O)c1ccc(OCc2ccc3[nH]ncc3c2)cc1 is 1.8-fold lower in IC50: 9.4 µM for the first, 5.3 µM for the second.

Going from N=C(N)NCCC[C@H](NC(=O)[C@H](CCCCN)NC(=O)[C@H](CCCCN)NC(=O)Cc1ccc(-c2ccccc2)cc1)C(N)=O to N=C(N)NCCC[C@H](NC(=O)[C@H](CCCCN)NC(=O)[C@H](Cc1ccc(CN)cc1)NC(=O)Cc1ccccc1)C(N)=O (PhAc-[Phe(4-CH2NH2)]-Lys-Arg-NH2), the IC50 rises from 1.55 µM to 8.57 µM (5.5-fold).

Going from NCCCC[C@H](NC(=O)[C@H](CCCCN)NS(=O)(=O)Cc1ccccc1)C(=O)N[C@H](C(=O)NCc1ccccc1)c1ccc(OCc2ccc(C(F)(F)F)cc2)cc1 to NCCCC[C@H](NC(=O)Cc1ccccc1)C(=O)N[C@@H](CCCCN)C(=O)N[C@H](C(=O)NCc1ccc(OCc2ccc(C(F)(F)F)cc2)cc1)c1ccccc1, the IC50 falls from 1.8 µM to 0.14 µM (13-fold). The second is the more potent here.

Compared with N=C(N)NCCC[C@H](NC(=O)[C@H](CCCCN)NC(=O)[C@H](CCCCN)NC(=O)Cc1ccccc1)C(=O)NCc1ccncc1, N=C(N)NCCC[C@H](NC(=O)[C@H](CCCCN)NC(=O)[C@H](CCCCN)NC(=O)Cc1ccccc1)C(=O)NCC1CCCCC1 is 7.8-fold lower in IC50: 14.1 µM for the first, 1.8 µM for the second.

Compared with CN(Cc1ccccc1)C(=O)N[C@@H](CCCCN)C(=O)N[C@@H](CCCCN)C(=O)N[C@@H](CCCNC(=N)N)C(N)=O, N=C(N)NCCC[C@H](NC(=O)[C@H](CCCCN)NC(=O)[C@H](CCCCN)NC(=O)Cc1cccnc1)C(N)=O is 1.6-fold lower in IC50: 7.4 µM for the first, 4.49 µM for the second. The second is the more potent here.

Going from N=C(N)NCCC[C@H](NC(=O)[C@H](CCCCN)NC(=O)[C@H](Cc1ccc(OCCN)cc1)NC(=O)Cc1ccccc1)C(N)=O (PhAc-[AEF]-Lys-Arg-NH2) to N=C(N)NCCC[C@H](NC(=O)[C@H](Cc1ccc(OCCN)cc1)NC(=O)[C@H](CCCCN)NC(=O)Cc1ccccc1)C(N)=O (PhAc-Lys-[AEF]-Arg-NH2), the IC50 rises from 30.7 µM to greater than 100 µM. The first is the more potent here.

First: NCCCC[C@H](NC(=O)Cc1ccccc1)C(=O)N[C@@H](CCCCN)C(=O)N[C@H](C(=O)NCc1ccccc1)c1ccccc1
Second: NCCCC[C@H](NC(=O)Cc1ccccc1)C(=O)N[C@@H](CCCCN)C(=O)N[C@@H](C(N)=O)c1ccccc1
The IC50 of the first is 27-fold lower: 0.55 µM for the first, 15 µM for the second. The first is the more potent here.

First: CC(NC(=O)[C@H](CCCCN)NC(=O)[C@H](CCCNC(=N)N)NC(=O)c1cccs1)c1ccc(OCc2ccc(C(F)(F)F)cc2)cc1 (mixture of isomers)
Second: COc1ccc(CNC(=O)[C@@H](NC(=O)[C@H](CCCCN)NC(=O)[C@H](CCCCN)NC(=O)Cc2ccccc2)c2ccc(OCc3ccc(C(F)(F)F)cc3)cc2)cc1
The IC50 of the first is 84-fold higher: 10.9 µM for the first, 0.13 µM for the second.

Going from N=C(N)CCCC[C@H](NC(=O)[C@H](CCCCN)NC(=O)[C@H](Cc1ccc(C(N)=O)cc1)NC(=O)Cc1ccccc1)C(N)=O to CN1CCC(CNC(=O)[C@H](CCCNC(=N)N)NC(=O)[C@H](CCCCN)NC(=O)[C@H](CCCCN)NC(=O)Cc2ccccc2)CC1, the IC50 falls from 42.3 µM to 7.8 µM (5.4-fold).

NCCCC[C@H](NC(=O)Cc1ccc(Cl)c(Cl)c1)C(=O)N[C@@H](CCCCN)C(=O)N[C@H](C(=O)NCc1ccc(OCc2ccc(C(F)(F)F)cc2)cc1)c1ccccc1 and NCCCC[C@H](NC(=O)Cc1ccccc1)C(=O)N[C@@H](CCCCN)C(=O)N[C@H](C(=O)NCc1cccc(OCc2ccc(C(F)(F)F)cc2)c1)c1ccccc1 are within 1.5-fold of each other in IC50: 0.17 µM for the first, 0.24 µM for the second.
